Test system: yeast genes (level of expressed mRNA)
Test: DNA chip analysis of expressed mRNA of yeast genes after 2 h culture with a toxic chemical substance
Assay type: cell-based, Saccharomyces cerevisiae S288C
Summary of the method: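 Values are treated-to-control fluorescence ratios from a whole-yeast-genome DNA chip (65° C, over 12 h hybridization) using Cy3/Cy5-labelled cDNA from mRNA. Log-phase S288C cells in YPD at 25° C were exposed 2 h to a toxicant at sublethal, growth-inhibiting concentration.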

S=C([S-])NCCNC(=S)[S-].[Zn+2] [(11), zinc N,N′-ethylenebis(dithiocarbamate)]
1.0: level of expressed mRNA in the presence of chemical substance/in its absence (gene YAL038W) | The level of expressed mRNA in the presence of chemical substance/absence: YAL049C (gene YAL049C) | The level of expressed mRNA in the presence of chemical substance/absence: YDR421W (gene YDR421W) | level of expressed mRNA in the presence of chemical substance/in its absence (gene YGL126W) | level of expressed mRNA in the presence of chemical substance/in its absence (gene YGL253W) | The level of expressed mRNA in the presence of chemical substance/absence: YGR198W (gene YGR198W) | The level of expressed mRNA in the presence of chemical substance/absence: YGR210C (gene YGR210C)
3.9: level of expressed mRNA in the presence of chemical substance/in its absence (gene YFR015C)
1.2: The level of expressed mRNA in the presence of chemical substance/absence: YBR013C (gene YBR013C) | The level of expressed mRNA in the presence of chemical substance/absence: YBR066C (gene YBR066C) | level of expressed mRNA in the presence of chemical substance/in its absence (gene YCR048W) | The level of expressed mRNA in the presence of chemical substance/absence: YDL173W (gene YDL173W) | The level of expressed mRNA in the presence of chemical substance/absence: YDR504C (gene YDR504C) | The level of expressed mRNA in the presence of chemical substance/absence: YGL045W (gene YGL045W) | The level of expressed mRNA in the presence of chemical substance/absence: YGR266W (gene YGR266W) | The level of expressed mRNA in the presence of chemical substance/absence: YGR277C (gene YGR277C)
2.4: level of expressed mRNA in the presence of chemical substance/in its absence (gene YBR299W)
0.7: The level of expressed mRNA in the presence of chemical substance/absence: YAL017W (gene YAL017W) | The level of expressed mRNA in the presence of chemical substance/absence: YAR064W (gene YAR064W) | The level of expressed mRNA in the presence of chemical substance/absence: YBR012C (gene YBR012C) | level of expressed mRNA in the presence of chemical substance/in its absence (gene YBR029C) | The level of expressed mRNA in the presence of chemical substance/absence: YDL233W (gene YDL233W) | The level of expressed mRNA in the presence of chemical substance/absence: YDR090C (gene YDR090C) | The level of expressed mRNA in the presence of chemical substance/absence: YDR221W (gene YDR221W)
4.0: level of expressed mRNA in the presence of chemical substance/in its absence (gene YAL012W)
2.1: level of expressed mRNA in the presence of chemical substance/in its absence (gene YDR487C)
0.3: The level of expressed mRNA in the presence of chemical substance/absence: YDR128W (gene YDR128W)
1.7: The level of expressed mRNA in the presence of chemical substance/absence: YAL014C (gene YAL014C) | The level of expressed mRNA in the presence of chemical substance/absence: YDR140W (gene YDR140W) | The level of expressed mRNA in the presence of chemical substance/absence: YDR366C (gene YDR366C) | The level of expressed mRNA in the presence of chemical substance/absence: YGR243W (gene YGR243W)
2.3: level of expressed mRNA in the presence of chemical substance/in its absence (gene YBL001C)
0.9: The level of expressed mRNA in the presence of chemical substance/absence: YBL100C (gene YBL100C) | level of expressed mRNA in the presence of chemical substance/in its absence (gene YBR023C) | The level of expressed mRNA in the presence of chemical substance/absence: YDR109C (gene YDR109C) | The level of expressed mRNA in the presence of chemical substance/absence: YDR425W (gene YDR425W) | The level of expressed mRNA in the presence of chemical substance/absence: YDR485C (gene YDR485C) | level of expressed mRNA in the presence of chemical substance/in its absence (gene YER026C) | The level of expressed mRNA in the presence of chemical substance/absence: YER092W (gene YER092W) | level of expressed mRNA in the presence of chemical substance/in its absence (gene YGL154C) | The level of expressed mRNA in the presence of chemical substance/absence: YGR139W (gene YGR139W)
0.8: level of expressed mRNA in the presence of chemical substance/in its absence (gene YBR068C) | The level of expressed mRNA in the presence of chemical substance/absence: YBR162C (gene YBR162C) | level of expressed mRNA in the presence of chemical substance/in its absence (gene YCR037C) | The level of expressed mRNA in the presence of chemical substance/absence: YDR281C (gene YDR281C) | The level of expressed mRNA in the presence of chemical substance/absence: YFR026C (gene YFR026C) | level of expressed mRNA in the presence of chemical substance/in its absence (gene YGL022W) | The level of expressed mRNA in the presence of chemical substance/absence: YGL088W (gene YGL088W) | The level of expressed mRNA in the presence of chemical substance/absence: YGL183C (gene YGL183C) | level of expressed mRNA in the presence of chemical substance/in its absence (gene YGL209W) | level of expressed mRNA in the presence of chemical substance/in its absence (gene YGR060W) | The level of expressed mRNA in the presence of chemical substance/absence: YGR211W (gene YGR211W)
0.6: The level of expressed mRNA in the presence of chemical substance/absence: YBL044W (gene YBL044W) | The level of expressed mRNA in the presence of chemical substance/absence: YBR063C (gene YBR063C) | The level of expressed mRNA in the presence of chemical substance/absence: YDR250C (gene YDR250C) | The level of expressed mRNA in the presence of chemical substance/absence: YDR271C (gene YDR271C) | The level of expressed mRNA in the presence of chemical substance/absence: YGL041C (gene YGL041C)
2.8: level of expressed mRNA in the presence of chemical substance/in its absence (gene YDL022W)
0.4: The level of expressed mRNA in the presence of chemical substance/absence: YBR124W (gene YBR124W) | The level of expressed mRNA in the presence of chemical substance/absence: YDR278C (gene YDR278C) | level of expressed mRNA in the presence of chemical substance/in its absence (gene YDR380W)
0.5: The level of expressed mRNA in the presence of chemical substance/absence: YGR156W (gene YGR156W)
1.4: level of expressed mRNA in the presence of chemical substance/in its absence (gene YAL044C) | The level of expressed mRNA in the presence of chemical substance/absence: YBR129C (gene YBR129C) | The level of expressed mRNA in the presence of chemical substance/absence: YBR281C (gene YBR281C) | The level of expressed mRNA in the presence of chemical substance/absence: YDR071C (gene YDR071C) | The level of expressed mRNA in the presence of chemical substance/absence: YGR038W (gene YGR038W)
2.6: The level of expressed mRNA in the presence of chemical substance/absence: YDL046W (gene YDL046W)
3.2: The level of expressed mRNA in the presence of chemical substance/absence: YCL042W (gene YCL042W)
1.3: level of expressed mRNA in the presence of chemical substance/in its absence (gene YAL054C) | level of expressed mRNA in the presence of chemical substance/in its absence (gene YBR222C) | level of expressed mRNA in the presence of chemical substance/in its absence (gene YCR098C) | The level of expressed mRNA in the presence of chemical substance/absence: YDR133C (gene YDR133C) | The level of expressed mRNA in the presence of chemical substance/absence: YDR316W (gene YDR316W) | level of expressed mRNA in the presence of chemical substance/in its absence (gene YDR502C) | level of expressed mRNA in the presence of chemical substance/in its absence (gene YEL020C) | The level of expressed mRNA in the presence of chemical substance/absence: YFR056C (gene YFR056C) | The level of expressed mRNA in the presence of chemical substance/absence: YGL057C (gene YGL057C) | The level of expressed mRNA in the presence of chemical substance/absence: YGL223C (gene YGL223C)
1.6: level of expressed mRNA in the presence of chemical substance/in its absence (gene YDR410C) | The level of expressed mRNA in the presence of chemical substance/absence: YEL044W (gene YEL044W) | level of expressed mRNA in the presence of chemical substance/in its absence (gene YGL001C) | The level of expressed mRNA in the presence of chemical substance/absence: YGR237C (gene YGR237C) | The level of expressed mRNA in the presence of chemical substance/absence: YGR250C (gene YGR250C)
1.8: level of expressed mRNA in the presence of chemical substance/in its absence (gene YBR014C) | level of expressed mRNA in the presence of chemical substance/in its absence (gene YCL064C) | level of expressed mRNA in the presence of chemical substance/in its absence (gene YDR019C) | level of expressed mRNA in the presence of chemical substance/in its absence (gene YGL104C)
5.4: The level of expressed mRNA in the presence of chemical substance/absence: YFL042C (gene YFL042C)
0.1: The level of expressed mRNA in the presence of chemical substance/absence: YAL018C (gene YAL018C) | The level of expressed mRNA in the presence of chemical substance/absence: YBR051W (gene YBR051W) | level of expressed mRNA in the presence of chemical substance/in its absence (gene YDR009W)
1.9: level of expressed mRNA in the presence of chemical substance/in its absence (gene YBR183W) | The level of expressed mRNA in the presence of chemical substance/absence: YDR338C (gene YDR338C)
1.5: level of expressed mRNA in the presence of chemical substance/in its absence (gene YBR111C) | The level of expressed mRNA in the presence of chemical substance/absence: YBR255W (gene YBR255W) | level of expressed mRNA in the presence of chemical substance/in its absence (gene YCL009C) | The level of expressed mRNA in the presence of chemical substance/absence: YCL056C (gene YCL056C) | level of expressed mRNA in the presence of chemical substance/in its absence (gene YER069W) | The level of expressed mRNA in the presence of chemical substance/absence: YER182W (gene YER182W)
2.0: level of expressed mRNA in the presence of chemical substance/in its absence (gene YBR035C) | The level of expressed mRNA in the presence of chemical substance/absence: YBR287W (gene YBR287W) | The level of expressed mRNA in the presence of chemical substance/absence: YDL089W (gene YDL089W)
1.1: The level of expressed mRNA in the presence of chemical substance/absence: YAR047C (gene YAR047C) | level of expressed mRNA in the presence of chemical substance/in its absence (gene YAR071W) | level of expressed mRNA in the presence of chemical substance/in its absence (gene YBR050C) | level of expressed mRNA in the presence of chemical substance/in its absence (gene YBR145W) | The level of expressed mRNA in the presence of chemical substance/absence: YCL044C (gene YCL044C) | The level of expressed mRNA in the presence of chemical substance/absence: YCR007C (gene YCR007C) | The level of expressed mRNA in the presence of chemical substance/absence: YDL193W (gene YDL193W) | The level of expressed mRNA in the presence of chemical substance/absence: YDR078C (gene YDR078C) | level of expressed mRNA in the presence of chemical substance/in its absence (gene YGL039W) | level of expressed mRNA in the presence of chemical substance/in its absence (gene YGL134W)
3.7: level of expressed mRNA in the presence of chemical substance/in its absence (gene YEL011W)
